“Also recorded” adds a separate entry of the source. No end group written: not given here.
Test system: RENCA tumors
Test: Subcutaneous RENCA tumor growth in mice
Assay type: in vivo
Conditions: s.c. RENCA in Balb/C mice, i.p. treatment from day 10, vs saline
Description: Mice: Balb/C mice, 5-8 weeks old, were purchased from Jackson laboratory (Ellsworth, Maine) and housed under pathogen free conditions. All experiments involving animals followed federal and state standards, which include the federal Animal Welfare Act and the NIH guide for the care and use of laboratory animals. The RENCA tumors were generated by subcutaneously injecting 2×10^5 tumor cells into the frank. The day tumor cells were injected was considered day 0. PF (0.1 mmol), PC (0.1 mmol) or P60 (100 ug) was administered i.p. twice a week starting on day 10; αPD1 (200 μg) was administered i.p. twice a week starting on day 5; temsirolimus (15 μg) was administered i.p. every other day, starting on day 10. All drugs were administered throughout the experimental course unless indicated. CD8 cells were depleted with a one-time αCD8 (200 μg) i.p. administration on day 2.
In cancer, Tregs can suppress the antitumor immune response, which is primarily mediated by CD8+ lymphocytes. Therefore, PF was administered to mice to enhance antitumor immunity and suppress growth of syngeneic mouse kidney cancer, which is considered an immunoresponsive cancer type. Mice tumors were established by injecting RENCA cells subcutaneously in the flank of Balb/C mice (5-7 mice per group). RENCA cells were injected subcutaneously to establish palpable tumors, and 10 days later mice were treated i.p., twice a week throughout the experiment, with PF, PC, P60 or Saline (FIG. 3D). Pomalidomide conjugated to (PEG)4 (PROTAC-control; PC) and P60 served as controls. […] In summary, PF decreased the immunosuppressive function of Tregs in vitro and decreased tumor growth in mice. […]
All immunotherapies, particularly when multi-drug combinations are involved, may have off-target effects. For example, drugs may have direct effects on the tumor, inhibiting tumor proliferation or inducing tumor apoptosis. Mice tumors were established by injecting RENCA cell subcutaneously in the flank of Balb/C mice (6-8 mice per group). 10 days later, mice were treated with PF twice per week. CD8 lymphocytes were depleted with αCD8 administered i.p. 2 days after injection of tumor cells. Mice in indicated groups received i.p. αPD1, twice a week, starting day 5 (FIG. 5A). Mice in indicated groups received i.p. temsirolimus every other day for 14 days, starting on days 10 (FIG. 5B). Tumor growth was monitored in these groups. […]

CO[C@H]1C[C@@H]2CC[C@@H](C)[C@@](O)(O2)C(=O)C(=O)N2CCCC[C@H]2C(=O)O[C@H]([C@H](C)C[C@@H]2CC[C@@H](OC(=O)C(C)(CO)CO)[C@H](OC)C2)CC(=O)[C@H](C)/C=C(\C)[C@@H](O)[C@@H](OC)C(=O)[C@H](C)C[C@H](C)/C=C/C=C/C=C/1C [temsirolimus]
tumor growth, single agent: suppressed tumor growth

RDFQSFRKMWPFFAM (not fully specified (some residues)) [P60]
tumor growth, single agent: Only PF produced a decrease in tumor growth; also recorded: no effect on RENCA tumor growth

Source: patent US20250049930A1, “PROTAC MOLECULES TARGETING FOXP3 AND USES THEREOF” (CEDARS-SINAI MEDICAL CENTER, priority 2022, published 2025)
